Assays:
[1] = Primary salt screen of the compound of Formula II: XRPD post-cycling and post-stability (40° C., 75% RH overnight); format: physicochemical; conditions: compound of Formula II + the acid given as label; for XRPD post-cycling: cycled RT/40° C. over 24 hours; for XRPD post-stability: 40° C. and 75% RH overnight
Method: The salt screen was performed as follows. […] In cases where stock solutions could not be attained, the acid was added neat to the solution of the compound of Formula II.
The samples were then temperature cycled between ambient (RT) and 40° C. in 4-hour cycles over 24 hours. Each mixture was filtered and isolated solids were analyzed (wet) by XRPD to determine crystallinity and form. Samples in which solid was not observed were stored uncapped to allow solvent evaporation. The remaining samples were placed in an oven at 40° C. and 75% RH overnight. The samples were then reanalyzed by XRPD to determine any changes in form or crystallinity. The observations and results, including the different diffractogram patterns observed during the screen, are shown in Tables 29-53, below, and FIGS. 24A-24B through 47A-47B.

[2] = Solubility test of the HBr salt of the compound of Formula I; format: physicochemical; conditions: for Appearance at 25° C. after 2 h / Solids dissolve at 65° C.?: HBr salt; for Appearance at 25° C. after 2 h: 10-20 mg in 1 mL; for Solids dissolve at 65° C.?: 65° C. for 3 hours
[3] = Stability screening of freebase and selected salts of Formula I, 40° C. and 75% RH, weekly HPLC over 4 weeks

## O=P(O)(O)O [Phosphoric acid]
[1]; Acetone/water (10%)
  XRPD post-cycling: Form 9
[1]; Dioxane/water (10%)
  XRPD post-cycling: No solid
[1]; IPA/water (10%)
  XRPD post-cycling: Form 10
[1]; MeCN/water (20%)
  XRPD post-cycling: No solid
[1]; THF/water (1%)
  XRPD post-cycling: Amorphous
[1]; from Dioxane/water (10%)
  XRPD post-stability: No solid
[1]; from EtOH/water (10%)
  XRPD post-stability: Form 10
[1]; from IPA/water (10%)
  XRPD post-stability: Form 10
[1]; from MeCN/water (20%)
  XRPD post-stability: No solid
[1]; from THF/water (1%)
  XRPD post-stability: Form 10

## Br.COc1ccc(CN2CCN(c3ccc(-c4cc(-c5cnn(C)c5)cn5ncc(C#N)c45)cn3)CC2)cn1 [HBr salt]
[2]; DMSO
  solubility: 1950 µg/mL
[2]; solvent 2-methyl THF
  Appearance at 25° C. after 2 h: Solids
  Solids dissolve at 65° C.?: No
[2]; solvent ACN
  Appearance at 25° C. after 2 h: Solids
  Solids dissolve at 65° C.?: No
[2]; solvent Acetone
  Appearance at 25° C. after 2 h: Solids
  Solids dissolve at 65° C.?: No
[2]; solvent DCE
  Appearance at 25° C. after 2 h: Solids
  Solids dissolve at 65° C.?: No
[2]; solvent DCM
  Appearance at 25° C. after 2 h: Solids
  Solids dissolve at 65° C.?: No
[2]; solvent DMSO
  Appearance at 25° C. after 2 h: Solids
  Solids dissolve at 65° C.?: No
[2]; solvent EtOAc
  Appearance at 25° C. after 2 h: Solids
  Solids dissolve at 65° C.?: No
[2]; solvent EtOH
  Appearance at 25° C. after 2 h: Solids
  Solids dissolve at 65° C.?: No
[2]; solvent IPA
  Appearance at 25° C. after 2 h: Solids
  Solids dissolve at 65° C.?: No
[2]; solvent MEK
  Appearance at 25° C. after 2 h: Solids
  Solids dissolve at 65° C.?: No
[2]; solvent MTBE
  Appearance at 25° C. after 2 h: Solids
  Solids dissolve at 65° C.?: No
[2]; solvent MeOH
  Appearance at 25° C. after 2 h: Solids
  Solids dissolve at 65° C.?: No
[2]; solvent THF
  Appearance at 25° C. after 2 h: Solids
  Solids dissolve at 65° C.?: No
[2]; solvent iPAc
  Appearance at 25° C. after 2 h: Solids
  Solids dissolve at 65° C.?: No
[2]; solvent water
  Appearance at 25° C. after 2 h: Solids
  Solids dissolve at 65° C.?: No
[2]; solvent systems examined
  Solubility (in words): low solubility
[2]; solvent systems examined, 65° C.
  Solids upon heating to 65° C.: did not dissolve

## O=S(=O)(O)c1ccc2ccccc2c1 [Naphthalene-2-sulfonic acid]
[1]; EtOH/water (10%)
  XRPD post-cycling: Form 2
[1]; THF/water (1%)
  XRPD post-cycling: Form 5
[1]; from EtOH/water (10%)
  XRPD post-stability: Form 2

## O=S(=O)(O)c1ccccc1 [Benzene sulfonic acid]
[1]; Dioxane/water (10%)
  XRPD post-cycling: No solid
[1]; EtOH/water (10%)
  XRPD post-cycling: Form 2
[1]; IPA/water (10%)
  XRPD post-cycling: Form 2
[1]; MeCN/water (20%)
  XRPD post-cycling: No solid
[1]; THF/water (1%)
  XRPD post-cycling: No solid
[1]; from Dioxane/water (10%)
  XRPD post-stability: No solid
[1]; from EtOH/water (10%)
  XRPD post-stability: Form 2
[1]; from IPA/water (10%)
  XRPD post-stability: Form 2
[1]; from MeCN/water (20%)
  XRPD post-stability: No solid
[1]; from THF/water (1%)
  XRPD post-stability: No solid

## O=S(=O)(O)CCO [2-Hydroxy ethanesulfonic acid]
[1]; Dioxane/water (10%)
  XRPD post-cycling: Form 7
[1]; EtOH/water (10%)
  XRPD post-cycling: Form 7
[1]; from Dioxane/water (10%)
  XRPD post-stability: Form 7
[1]; from EtOH/water (10%)
  XRPD post-stability: Form 7

## Cc1ccc(S(=O)(=O)O)cc1 [p-Toluene sulfonic acid]
[1]; Acetone/water (10%)
  XRPD post-cycling: Form 4
[1]; Dioxane/water (10%)
  XRPD post-cycling: No solid
[1]; EtOH/water (10%)
  XRPD post-cycling: Amorphous
[1]; IPA/water (10%)
  XRPD post-cycling: Amorphous
[1]; MeCN/water (20%)
  XRPD post-cycling: No solid
[1]; from Acetone/water (10%)
  XRPD post-stability: Form 4
[1]; from Dioxane/water (10%)
  XRPD post-stability: No solid
[1]; from EtOH/water (10%)
  XRPD post-stability: Amorphous
[1]; from IPA/water (10%)
  XRPD post-stability: Form 4
[1]; from MeCN/water (20%)
  XRPD post-stability: No solid
[1]; from THF/water (1%)
  XRPD post-stability: Form 4

## O=S(=O)(O)CCS(=O)(=O)O [1,2-Ethane disulfonic acid]
[1]; Acetone/water (10%)
  XRPD post-cycling: No solid
[1]; Dioxane/water (10%)
  XRPD post-cycling: No solid
[1]; EtOH/water (10%)
  XRPD post-cycling: No solid
[1]; IPA/water (10%)
  XRPD post-cycling: No solid
[1]; MeCN/water (20%)
  XRPD post-cycling: No solid
[1]; THF/water (1%)
  XRPD post-cycling: No solid
[1]; from Acetone/water (10%)
  XRPD post-stability: No solid
[1]; from Dioxane/water (10%)
  XRPD post-stability: No solid
[1]; from EtOH/water (10%)
  XRPD post-stability: No solid
[1]; from IPA/water (10%)
  XRPD post-stability: No solid
[1]; from MeCN/water (20%)
  XRPD post-stability: No solid
[1]; from THF/water (1%)
  XRPD post-stability: No solid

## COc1ccc(CN2CCN(c3ccc(-c4cc(-c5cnn(C)c5)cn5ncc(C#N)c45)cn3)CC2)cn1 [Freebase I]
[3]; 40° C. and 75% RH, T = 0 to 4 weeks
  Absolute % change: 0.4%
[3]; stored at 40° C. and 75% RH, 1 week
  Stability, HPLC analysis, T = 1 week: 97.3%
[3]; stored at 40° C. and 75% RH, 2 weeks
  Stability, HPLC analysis, T = 2 weeks: 97.1%
[3]; stored at 40° C. and 75% RH, 3 weeks
  Stability, HPLC analysis, T = 3 weeks: 97.1%
[3]; stored at 40° C. and 75% RH, 4 weeks
  Stability, HPLC analysis, T = 4 weeks: 96.9%
[3]; stored at 40° C. and 75% RH, T = 0
  Stability, HPLC analysis, T = 0: 97.3%

## O=C(O)C(=O)O [Oxalic acid]
[1]; Acetone/water (10%)
  XRPD post-cycling: Amorphous
[1]; Dioxane/water (10%)
  XRPD post-cycling: Form 6
[1]; EtOH/water (10%)
  XRPD post-cycling: Amorphous
[1]; IPA/water (10%)
  XRPD post-cycling: Amorphous
[1]; MeCN/water (20%)
  XRPD post-cycling: No solid
[1]; THF/water (1%)
  XRPD post-cycling: No solid
[1]; from Dioxane/water (10%)
  XRPD post-stability: Form 6
[1]; from EtOH/water (10%)
  XRPD post-stability: Form 6
[1]; from IPA/water (10%)
  XRPD post-stability: Form 6
[1]; from MeCN/water (20%)
  XRPD post-stability: No solid
[1]; from THF/water (1%)
  XRPD post-stability: No solid

## CS(=O)(=O)O [Methane sulfonic acid]
[1]; Acetone/water (10%)
  XRPD post-cycling: Amorphous
[1]; Dioxane/water (10%)
  XRPD post-cycling: No solid
[1]; EtOH/water (10%)
  XRPD post-cycling: Amorphous
[1]; IPA/water (10%)
  XRPD post-cycling: Form 2
[1]; MeCN/water (20%)
  XRPD post-cycling: No solid
[1]; THF/water (1%)
  XRPD post-cycling: No solid
[1]; from Acetone/water (10%)
  XRPD post-stability: Amorphous
[1]; from Dioxane/water (10%)
  XRPD post-stability: No solid
[1]; from EtOH/water (10%)
  XRPD post-stability: Amorphous
[1]; from IPA/water (10%)
  XRPD post-stability: Form 2
[1]; from MeCN/water (20%)
  XRPD post-stability: No solid
[1]; from THF/water (1%)
  XRPD post-stability: No solid

## CCS(=O)(=O)O [Ethane sulfonic acid]
[1]; Acetone/water (10%)
  XRPD post-cycling: No solid
[1]; Dioxane/water (10%)
  XRPD post-cycling: No solid
[1]; EtOH/water (10%)
  XRPD post-cycling: No solid
[1]; IPA/water (10%)
  XRPD post-cycling: Amorphous
[1]; MeCN/water (20%)
  XRPD post-cycling: No solid
[1]; THF/water (1%)
  XRPD post-cycling: No solid
[1]; from Acetone/water (10%)
  XRPD post-stability: No solid
[1]; from Dioxane/water (10%)
  XRPD post-stability: No solid
[1]; from EtOH/water (10%)
  XRPD post-stability: No solid
[1]; from IPA/water (10%)
  XRPD post-stability: Amorphous
[1]; from MeCN/water (20%)
  XRPD post-stability: No solid
[1]; from THF/water (1%)
  XRPD post-stability: No solid

## Cl [Hydrochloric acid]
[1]; Acetone/water (10%)
  XRPD post-cycling: Form 2
[1]; Dioxane/water (10%)
  XRPD post-cycling: Form 2
[1]; EtOH/water (10%)
  XRPD post-cycling: Form 2
[1]; IPA/water (10%)
  XRPD post-cycling: Form 2
[1]; MeCN/water (20%)
  XRPD post-cycling: Form 2
[1]; THF/water (1%)
  XRPD post-cycling: Form 2
[1]; from Acetone/water (10%)
  XRPD post-stability: Form 2
[1]; from Dioxane/water (10%)
  XRPD post-stability: Form 2
[1]; from EtOH/water (10%)
  XRPD post-stability: Form 2
[1]; from IPA/water (10%)
  XRPD post-stability: Form 2
[1]; from MeCN/water (20%)
  XRPD post-stability: Form 2
[1]; from THF/water (1%)
  XRPD post-stability: Form 2

## O=S(=O)(O)O [Sulfuric acid]
[1]; Acetone/water (10%)
  XRPD post-cycling: No solid
[1]; Dioxane/water (10%)
  XRPD post-cycling: No solid
[1]; EtOH/water (10%)
  XRPD post-cycling: No solid
[1]; IPA/water (10%)
  XRPD post-cycling: Form 3
[1]; MeCN/water (20%)
  XRPD post-cycling: No solid
[1]; THF/water (1%)
  XRPD post-cycling: No solid
[1]; from Acetone/water (10%)
  XRPD post-stability: No solid
[1]; from Dioxane/water (10%)
  XRPD post-stability: No solid
[1]; from EtOH/water (10%)
  XRPD post-stability: No solid
[1]; from IPA/water (10%)
  XRPD post-stability: Form 5
[1]; from MeCN/water (20%)
  XRPD post-stability: No solid
[1]; from THF/water (1%)
  XRPD post-stability: No solid

## O=C(O)/C=C\C(=O)O [Maleic acid]
[1]; Acetone/water (10%)
  XRPD post-cycling: Amorphous
[1]; Dioxane/water (10%)
  XRPD post-cycling: No solid
[1]; EtOH/water (10%)
  XRPD post-cycling: Amorphous
[1]; IPA/water (10%)
  XRPD post-cycling: Amorphous
[1]; MeCN/water (20%)
  XRPD post-cycling: No solid
[1]; from Acetone/water (10%)
  XRPD post-stability: Amorphous
[1]; from Dioxane/water (10%)
  XRPD post-stability: No solid
[1]; from EtOH/water (10%)
  XRPD post-stability: Amorphous
[1]; from IPA/water (10%)
  XRPD post-stability: Amorphous
[1]; from MeCN/water (20%)
  XRPD post-stability: No solid
[1]; from THF/water (1%)
  XRPD post-stability: Form 15

## N[C@@H](CC(=O)O)C(=O)O [L-Aspartic acid]
[1]; IPA/water (10%)
  XRPD post-cycling: Form 8
[1]; THF/water (1%)
  XRPD post-cycling: Form 8
[1]; from Acetone/water (10%)
  XRPD post-stability: Form 14
[1]; from IPA/water (10%)
  XRPD post-stability: Form 8
[1]; from MeCN/water (20%)
  XRPD post-stability: Form 8
[1]; from THF/water (1%)
  XRPD post-stability: Form 8
